Source: ChEMBL document CHEMBL1201862, “PubChem BioAssay data set” (2004)
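Dose response: 5 concentrations. Exposure: 48 h. Format: 96-well plates. Endpoint: linear interpolation; highest concentration if not reached. At the GI50, growth is halved.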 Calls of active or inactive are those of the source. No stated cut-off is given here; in the data, active = GI50 up to about 1.1 µM and inactive = higher.

Experiments:
Test in all cases: growth of human tumour cells (NCI), 48 h
[1] = test system: LOX IMVI
[2] = test system: K562
[3] = test system: HOP-92
[4] = test system: HCT-15
[5] = test system: MDA-N
[6] = test system: SW-620
[7] = test system: HT-29
[8] = test system: 786-0
[9] = test system: ACHN
[10] = test system: SN12C
[11] = test system: NCI-H460
[12] = test system: M14
[13] = test system: SF-268
[14] = test system: OVCAR-8
[15] = test system: Hs-578T
[16] = test system: OVCAR-4
[17] = test system: UACC-257
[18] = test system: COLO 205
[19] = test system: NCI-H226
[20] = test system: HL-60

C/C(=N\NC(=O)c1ccccc1O)c1cccc(/C(C)=N/NC(=O)c2ccccc2O)n1
GI50 [1]: 1.7 µM (inactive)
GI50 [2]: 15 µM (inactive)
GI50 [3]: 10.9 µM (inactive)
GI50 [4]: 7.55 µM
GI50 [5]: > 57 µM (inactive)
GI50 [6]: 5.74 µM (inactive)
GI50 [7]: 8.61 µM (inactive)
GI50 [8]: 5.32 µM (inactive)
GI50 [9]: 4.27 µM (inactive)
GI50 [10]: 6.07 µM (inactive)
GI50 [11]: 6.71 µM (inactive)
GI50 [12]: 12.6 µM (inactive)
GI50 [13]: 3.41 µM (inactive)
GI50 [14]: 2.13 µM (inactive)
GI50 [15]: > 65.2 µM (inactive)

CCOC(=O)c1cc(C2CCN(Cc3ccccc3)C2=O)c(C(=O)/C=C(/C)N)[nH]1 (stereo not drawn)
GI50 [16]: 72.9 µM (inactive)
GI50 [17]: > 100 µM (inactive)
GI50 [2]: > 100 µM (inactive)
GI50 [3]: 25.8 µM (inactive)
GI50 [18]: > 100 µM (inactive)
GI50 [4]: > 100 µM
GI50 [5]: > 100 µM (inactive)
GI50 [6]: > 100 µM (inactive)
GI50 [7]: > 100 µM (inactive)
GI50 [8]: 55.6 µM (inactive)
GI50 [9]: > 100 µM (inactive)
GI50 [11]: 85.5 µM (inactive)
GI50 [12]: > 100 µM (inactive)
GI50 [13]: > 100 µM (inactive)
GI50 [14]: 65.5 µM (inactive)
GI50 [15]: 98.4 µM (inactive)

COC(=O)/C=C(\C(=O)OC)C1C(=O)Oc2c(C)c(=O)c3ccccc3n21 (stereo not drawn)
GI50 [1]: > 100 µM (inactive)
GI50 [16]: > 100 µM (inactive)
GI50 [17]: > 100 µM (inactive)
GI50 [2]: > 100 µM (inactive)
GI50 [18]: > 100 µM (inactive)
GI50 [4]: > 100 µM
GI50 [5]: > 100 µM (inactive)
GI50 [6]: > 100 µM (inactive)
GI50 [7]: > 100 µM (inactive)
GI50 [8]: > 100 µM (inactive)
GI50 [19]: > 100 µM (inactive)
GI50 [10]: > 100 µM (inactive)
GI50 [11]: > 100 µM (inactive)
GI50 [20]: > 100 µM (inactive)
GI50 [12]: > 100 µM (inactive)
GI50 [13]: > 100 µM (inactive)
GI50 [14]: > 100 µM (inactive)
GI50 [15]: > 100 µM (inactive)

O=C1Nc2ccc(S(=O)(=O)NCCO)cc2/C1=C1/Nc2ccccc2C1=O
GI50 [1]: 42 µM (inactive)
GI50 [16]: 3.06 µM (inactive)
GI50 [17]: > 100 µM (inactive)
GI50 [2]: 4.28 µM (inactive)
GI50 [3]: 13.8 µM (inactive)
GI50 [18]: 2.82 µM (inactive)
GI50 [4]: 13.3 µM
GI50 [5]: > 100 µM (inactive)
GI50 [6]: 11.9 µM (inactive)
GI50 [7]: > 100 µM (inactive)
GI50 [8]: 9.31 µM (inactive)
GI50 [19]: > 100 µM (inactive)
GI50 [9]: 6.97 µM (inactive)
GI50 [10]: 67.5 µM (inactive)
GI50 [11]: 30.3 µM (inactive)
GI50 [12]: > 100 µM (inactive)
GI50 [13]: 9.59 µM (inactive)
GI50 [14]: 11 µM (inactive)
GI50 [15]: 6.73 µM (inactive)

OC(C1CCC=NN1C(O)(C(F)(F)F)C(F)(F)F)(C(F)(F)F)C(F)(F)F (stereo not drawn)
GI50 [1]: > 10 µM (inactive)
GI50 [16]: > 10 µM (inactive)
GI50 [17]: > 10 µM (inactive)
GI50 [2]: > 10 µM (inactive)
GI50 [3]: > 10 µM (inactive)
GI50 [18]: > 10 µM (inactive)
GI50 [4]: > 10 µM
GI50 [5]: > 10 µM (inactive)
GI50 [7]: > 10 µM (inactive)
GI50 [8]: > 10 µM (inactive)
GI50 [19]: > 10 µM (inactive)
GI50 [9]: > 10 µM (inactive)
GI50 [10]: > 10 µM (inactive)
GI50 [11]: > 10 µM (inactive)
GI50 [12]: > 10 µM (inactive)
GI50 [13]: > 10 µM (inactive)
GI50 [14]: > 10 µM (inactive)
GI50 [15]: > 10 µM (inactive)

CCOC(=O)/C=C1\c2ccccc2C(=O)N1CC(=O)OCC
GI50 [1]: 75.5 µM (inactive)
GI50 [16]: > 100 µM (inactive)
GI50 [17]: > 100 µM (inactive)
GI50 [2]: > 100 µM (inactive)
GI50 [3]: 39.9 µM (inactive)
GI50 [18]: > 100 µM (inactive)
GI50 [4]: > 100 µM
GI50 [5]: > 100 µM (inactive)
GI50 [6]: > 100 µM (inactive)
GI50 [8]: > 100 µM (inactive)
GI50 [19]: > 100 µM (inactive)
GI50 [9]: > 100 µM (inactive)
GI50 [10]: > 100 µM (inactive)
GI50 [12]: > 100 µM (inactive)
GI50 [13]: > 100 µM (inactive)
GI50 [14]: > 100 µM (inactive)
GI50 [15]: > 100 µM (inactive)

Cc1ccc(/C=C2\Cc3cc(C)c(C)cc3C2=O)c(C(=O)O)c1
GI50 [1]: 31 µM (inactive)
GI50 [17]: 24.5 µM (inactive)
GI50 [2]: 44.1 µM (inactive)
GI50 [4]: 27.5 µM
GI50 [5]: 29.6 µM (inactive)
GI50 [6]: 34.6 µM (inactive)
GI50 [7]: 33.3 µM (inactive)
GI50 [8]: 40.2 µM (inactive)
GI50 [19]: 19.3 µM (inactive)
GI50 [9]: 46.3 µM (inactive)
GI50 [10]: 30.5 µM (inactive)
GI50 [11]: 33.7 µM (inactive)
GI50 [20]: 54.3 µM (inactive)
GI50 [13]: 24.3 µM (inactive)
GI50 [14]: 43.5 µM (inactive)
GI50 [15]: 37.9 µM (inactive)

CN1c2ccccc2C2c3c(O)ccc(O)c3C=C([N+](=O)[O-])C21 (stereo not drawn)
GI50 [1]: 0.407 µM (active)
GI50 [16]: 1.21 µM (inactive)
GI50 [17]: 0.19 µM (active)
GI50 [2]: 0.497 µM (active)
GI50 [3]: 2.28 µM (inactive)
GI50 [18]: 0.653 µM (active)
GI50 [4]: 1.08 µM
GI50 [5]: 0.69 µM (active)
GI50 [6]: 0.406 µM (active)
GI50 [7]: 0.136 µM (active)
GI50 [8]: 0.519 µM (active)
GI50 [19]: 16.2 µM (inactive)
GI50 [9]: 0.679 µM (active)
GI50 [10]: 0.312 µM (active)
GI50 [11]: 1.9 µM (inactive)
GI50 [20]: 0.684 µM (active)
GI50 [12]: 0.513 µM (active)
GI50 [13]: 0.388 µM (active)
GI50 [14]: 0.286 µM (active)
